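48-hour exposure; five concentrations; linearly interpolated endpoints. Here, GI50 denotes the concentration required for 50% inhibition of growth.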 Active and inactive are the calls of the source. Rule as the data show it: active = GI50 up to about 1.1 µM and inactive = higher.
Experiments:
Assay in all cases: growth of human tumour cells (NCI), 48 h
M14 = test system: M14
UACC-62 = test system: UACC-62
NCI-H226 = test system: NCI-H226
SK-MEL-28 = test system: SK-MEL-28
NCI-H522 = test system: NCI-H522
K562 = test system: K562
LOX IMVI = test system: LOX IMVI
HT-29 = test system: HT-29
786-0 = test system: 786-0
HOP-92 = test system: HOP-92
PC-3 = test system: PC-3
NCI-H23 = test system: NCI-H23
A498 = test system: A498
TK-10 = test system: TK-10
MOLT-4 = test system: MOLT-4
SF-295 = test system: SF-295
HCT-15 = test system: HCT-15
RXF 393 = test system: RXF 393
NCI-H460 = test system: NCI-H460
HCC 2998 = test system: HCC 2998

CC(O)c1nc(C#N)c(N)o1 (centres undefined)
GI50 (M14): > 100 µM (inactive)
GI50 (UACC-62): > 100 µM (inactive)
GI50 (NCI-H226): > 100 µM (inactive)
GI50 (SK-MEL-28): > 100 µM (inactive)
GI50 (NCI-H522): > 100 µM (inactive)
GI50 (K562): > 100 µM (inactive)
GI50 (LOX IMVI): > 100 µM (inactive)
GI50 (HT-29): > 100 µM (inactive)
GI50 (786-0): > 100 µM (inactive)
GI50 (HOP-92): > 100 µM (inactive)
GI50 (PC-3): > 100 µM (inactive)
GI50 (NCI-H23): > 100 µM (inactive)
GI50 (A498): > 100 µM (inactive)
GI50 (TK-10): > 100 µM (inactive)
GI50 (MOLT-4): > 100 µM (inactive)
GI50 (SF-295): > 100 µM (inactive)

COC[C@H](Cc1ccccc1)/N=C/c1ccccc1
GI50 (M14): > 100 µM (inactive)
GI50 (UACC-62): > 100 µM (inactive)
GI50 (SK-MEL-28): > 100 µM (inactive)
GI50 (NCI-H522): > 100 µM (inactive)
GI50 (HCT-15): > 100 µM
GI50 (K562): > 100 µM (inactive)
GI50 (RXF 393): > 100 µM (inactive)
GI50 (LOX IMVI): > 100 µM (inactive)
GI50 (HT-29): > 100 µM (inactive)
GI50 (786-0): > 100 µM (inactive)
GI50 (NCI-H460): > 100 µM (inactive)
GI50 (PC-3): > 100 µM (inactive)
GI50 (NCI-H23): > 100 µM (inactive)
GI50 (TK-10): > 100 µM (inactive)
GI50 (HCC 2998): > 100 µM (inactive)
GI50 (MOLT-4): > 100 µM (inactive)
GI50 (SF-295): > 100 µM (inactive)

O=C(O)c1ccc(Nc2nc3ccc(C(F)(F)F)cc3nc2-c2ccccc2)cc1
GI50 (M14): 24 µM (inactive)
GI50 (UACC-62): 14.6 µM (inactive)
GI50 (NCI-H226): 46.1 µM (inactive)
GI50 (SK-MEL-28): 37.8 µM (inactive)
GI50 (NCI-H522): 28.6 µM (inactive)
GI50 (HCT-15): 18.6 µM
GI50 (K562): 45.2 µM (inactive)
GI50 (RXF 393): 20.8 µM (inactive)
GI50 (LOX IMVI): 40.4 µM (inactive)
GI50 (HT-29): > 10 µM (inactive)
GI50 (786-0): 37.7 µM (inactive)
GI50 (NCI-H460): 29.6 µM (inactive)
GI50 (PC-3): 50.9 µM (inactive)
GI50 (NCI-H23): 48 µM (inactive)
GI50 (TK-10): 23.1 µM (inactive)
GI50 (HCC 2998): 14.5 µM (inactive)
GI50 (MOLT-4): 30 µM (inactive)
GI50 (SF-295): 48 µM (inactive)

N#Cc1sc2c(c1OC(=O)c1ccccc1)c(=O)n(-c1ccccc1)c(=S)n2-c1ccccc1
GI50 (M14): 18.3 µM (inactive)
GI50 (UACC-62): 19.9 µM (inactive)
GI50 (NCI-H226): 18.1 µM (inactive)
GI50 (SK-MEL-28): 25.7 µM (inactive)
GI50 (NCI-H522): 13.8 µM (inactive)
GI50 (HCT-15): 18.2 µM
GI50 (K562): 27.6 µM (inactive)
GI50 (RXF 393): 14.3 µM (inactive)
GI50 (LOX IMVI): 19.8 µM (inactive)
GI50 (HT-29): 32.7 µM (inactive)
GI50 (786-0): 30.3 µM (inactive)
GI50 (NCI-H460): 30.3 µM (inactive)
GI50 (PC-3): 19.5 µM (inactive)
GI50 (NCI-H23): 21.2 µM (inactive)
GI50 (TK-10): 28.8 µM (inactive)
GI50 (HCC 2998): 25.2 µM (inactive)
GI50 (MOLT-4): 20.6 µM (inactive)
GI50 (SF-295): 28.2 µM (inactive)
